Laboratory results reported in ChEMBL document CHEMBL4480422, “Alkyl derivatives of 1,3,5-triazine as histamine H4 receptor ligands” (Bioorg Med Chem, 2019).
The source made the active and inactive calls.

Legend:
Histamine H4 receptor [1] = molecular target: T1, Histamine H4 receptor (Homo sapiens, UniProt Q9H3N8); test: Displacement of [3H]-histamine from recombinant human H4 receptor expressed in Sf9 cell membranes co-expressing Galphai2/Gbeta1gamma2
[2] = molecular target: T2, Muscarinic acetylcholine receptor M3 (Cavia porcellus, UniProt Q8VH26); test: Agonist activity at muscarinic M3 receptor in guinea-pig ileum assessed as induction of contractions after 15 mins; format: tissue-based; details: 0.25 h
Mus musculus [3] = test: Effect on spontaneous locomotor activity in Albino Swiss CD-1 mouse assessed as decrease in number of light beam crossings at 75 mg/kg, ip treated prior to test and measured for next 30 mins relative to control; format: ADME, organism-based; design: scale not given: the % may be the effect or the level left; details: in vivo, 0.5 h
Rattus norvegicus [4] = test: Anti-inflammatory activity in Wistar (Krf:(WI) WU) rat model of carrageenan-induced thermal hyperalgesia assessed as paw withdrawal latency time at 25 mg/kg, ip administered as single dose prior to carrageenan challenge and measured after 1 hr by plantar test (reference value: 4.79 +/- 0.99 s); format: functional
[5] = molecular target: Histamine H1 receptor (Cavia porcellus) (UniProt P31389); test: Agonist activity at histamine H1 receptor in guinea-pig ileum assessed as induction of contractions after 15 mins; format: tissue-based
[6] = Neurotoxicity in Albino Swiss CD-1 mouse assessed as motor impairment at 25 to 75 mg/kg, ip treated 30 mins prior to test by rotarod test; format: toxicity, organism-based; details: in vivo, 0.5 h
Rattus norvegicus [7] = test: Anti-inflammatory activity in Wistar (Krf:(WI) WU) rat model of carrageenan-induced paw edema assessed as hind paw volume at 25 mg/kg, ip administered as single dose prior to carrageenan challenge and measured after 1 hr by plethysmometer (reference value: 49%); format: functional
Rattus norvegicus [8] = test: Anti-inflammatory activity in Wistar (Krf:(WI) WU) rat model of carrageenan-induced paw edema assessed as hind paw volume at 25 mg/kg, ip administered as single dose prior to carrageenan challenge and measured after 2 hrs by plethysmometer (reference value: 103%); format: functional
Rattus norvegicus [9] = test: Anti-inflammatory activity in Wistar (Krf:(WI) WU) rat model of carrageenan-induced thermal hyperalgesia assessed as paw withdrawal latency time at 50 mg/kg, ip administered as single dose prior to carrageenan challenge and measured after 3 hrs by plantar test (reference value: 3.03 +/- 0.4 s); format: functional
Rattus norvegicus [10] = test: Anti-inflammatory activity in Wistar (Krf:(WI) WU) rat model of carrageenan-induced thermal hyperalgesia assessed as paw withdrawal latency time at 50 mg/kg, ip administered as single dose prior to carrageenan challenge and measured after 1 hr by plantar test (reference value: 4.79 +/- 0.99 s); format: functional
Histamine H4 receptor [11] = molecular target: T1, Histamine H4 receptor; details: Sf9
Mus musculus [12] = test: Effect on spontaneous locomotor activity in Albino Swiss CD-1 mouse assessed as change in number of light beam crossings at 25 to 50 mg/kg, ip treated prior to test and measured for next 30 mins; format: ADME, organism-based; details: in vivo, 0.5 h
Rattus norvegicus [13] = test: Anti-inflammatory activity in Wistar (Krf:(WI) WU) rat model of carrageenan-induced paw edema assessed as hind paw volume at 12.5 mg/kg, ip administered as single dose prior to carrageenan challenge and measured after 3 hrs by plethysmometer (reference value: 130%); format: functional
Mus musculus [14] = test: (§1) Antinociceptive activity in formalin-induced nociception pain Albino Swiss CD-1 mouse model assessed as reduction in time spent licking or biting formalin injected right hind paw in inflammatory phase at 50 mg/kg, ip pretreated followed by formalin injection and measured after 15 to 30 mins relative to control; format: functional; design: scale not given: the % may be the effect or the level left
Rattus norvegicus [15] = test: Anti-inflammatory activity in Wistar (Krf:(WI) WU) rat model of carrageenan-induced paw edema assessed as hind paw volume at 12.5 mg/kg, ip administered as single dose prior to carrageenan challenge and measured after 1 hr by plethysmometer (reference value: 49%); format: functional
Rattus norvegicus [16] = test: Anti-inflammatory activity in Wistar (Krf:(WI) WU) rat model of carrageenan-induced thermal hyperalgesia assessed as paw withdrawal latency time at 50 mg/kg, ip administered as single dose prior to carrageenan challenge and measured after 2 hrs by plantar test (reference value: 4.03 +/- 0.7 s); format: functional
Rattus norvegicus [17] = test: Anti-inflammatory activity in Wistar (Krf:(WI) WU) rat model of carrageenan-induced paw edema assessed as reduction in hind paw volume administered as single ip dose prior to carrageenan challenge and measured after 1 to 3 hrs by plethysmometer; format: functional, organism-based
Histamine H4 receptor [18] = molecular target: T1, Histamine H4 receptor; test: Agonist activity at recombinant human H4 receptor expressed in Sf9 cell membranes co-expressing Galphai2/Gbeta1gamma2 measured after 1 hr in presence of [35S]GTPgammaS by liquid scintillation counting method; format: functional
Rattus norvegicus [19] = test: Anti-inflammatory activity in Wistar (Krf:(WI) WU) rat model of carrageenan-induced paw edema assessed as hind paw volume at 50 mg/kg, ip administered as single dose prior to carrageenan challenge and measured after 2 hrs by plethysmometer (reference value: 103%); format: functional
Rattus norvegicus [20] = test: Anti-inflammatory activity in Wistar (Krf:(WI) WU) rat model of carrageenan-induced thermal hyperalgesia assessed as paw withdrawal latency time at 25 mg/kg, ip administered as single dose prior to carrageenan challenge and measured after 3 hrs by plantar test (reference value: 3.03 +/- 0.4 s); format: functional
Rattus norvegicus [21] = test: Anti-inflammatory activity in Wistar (Krf:(WI) WU) rat model of carrageenan-induced paw edema assessed as hind paw volume at 50 mg/kg, ip administered as single dose prior to carrageenan challenge and measured after 1 hr by plethysmometer (reference value: 49%); format: functional
Rattus norvegicus [22] = test: Anti-inflammatory activity in Wistar (Krf:(WI) WU) rat model of carrageenan-induced paw edema assessed as hind paw volume at 25 mg/kg, ip administered as single dose prior to carrageenan challenge and measured after 3 hrs by plethysmometer (reference value: 130%); format: functional
Mus musculus [23] = test: Antinociceptive activity in ip dosed formalin-induced nociception pain Albino Swiss CD-1 mouse model assessed as reduction in time spent licking or biting formalin injected right hind paw in inflammatory phase pretreated followed by formalin injection and measured after 15 to 30 mins; format: functional; details: Swiss CD-1, ip
[24] = molecular target: T2, Muscarinic acetylcholine receptor M3; test: Antagonist activity at muscarinic M3 receptor in guinea-pig ileum assessed as inhibition of carbachol-induced contractions after 15 mins; format: tissue-based; details: read-out: pA2 (converted)
Mus musculus [25] = test: Antinociceptive activity in formalin-induced nociception pain Albino Swiss CD-1 mouse model assessed as reduction in time spent licking or biting formalin injected right hind paw in early phase at 75 mg/kg, ip pretreated followed by formalin injection and measured up to 5 mins; format: functional, organism-based
Rattus norvegicus [26] = test: Anti-inflammatory activity in Wistar (Krf:(WI) WU) rat model of carrageenan-induced thermal hyperalgesia assessed as paw withdrawal latency time at 25 mg/kg, ip administered as single dose prior to carrageenan challenge and measured after 2 hrs by plantar test (reference value: 4.03 +/- 0.7 s); format: functional
Rattus norvegicus [27] = test: Anti-inflammatory activity in Wistar (Krf:(WI) WU) rat model of carrageenan-induced mechanical hyperalgesia assessed as increase in paw withdrawal threshold at 12.5 to 50 mg/kg, ip administered as single dose prior to carrageenan challenge and measured after 3 hrs; format: functional, organism-based
Rattus norvegicus [28] = test: Anti-inflammatory activity in Wistar (Krf:(WI) WU) rat model of carrageenan-induced paw edema assessed as hind paw volume at 50 mg/kg, ip administered as single dose prior to carrageenan challenge and measured after 3 hrs by plethysmometer (reference value: 130%); format: functional
Histamine H1 receptor = Histamine H1 receptor (Cavia porcellus, UniProt P31389); test: Antagonist activity at histamine H1 receptor in guinea-pig ileum assessed as inhibition of histamine-induced contractions after 15 mins; format: tissue-based; details: read-out: pA2 (converted)
Rattus norvegicus [29] = test: Anti-inflammatory activity in Wistar (Krf:(WI) WU) rat model of carrageenan-induced paw edema assessed as hind paw volume at 12.5 mg/kg, ip administered as single dose prior to carrageenan challenge and measured after 2 hrs by plethysmometer (reference value: 103%); format: functional
Histamine H4 receptor [30] = molecular target: T1, Histamine H4 receptor; test: Antagonist activity at recombinant human H4 receptor expressed in CHOK1 cells co-expressing Galpha16/aequorin assessed as inhibition of histamine-induced intracellular calcium flux preincubated for 30 mins followed by histamine addition and measured for 30 secs in presence of coelenterazine by luminescence assay; format: functional, cell-based
Histamine H4 receptor [31] = molecular target: T1, Histamine H4 receptor; test: Agonist activity at recombinant human H4 receptor expressed in CHOK1 cells co-expressing Galpha16/aequorin assessed as increase in intracellular calcium flux incubated for 1 hr measured for 30 secs in presence of coelenterazine by luminescence assay; format: functional, cell-based
Mus musculus [32] = test: as §1, with “25” for “50”; format: functional; design: scale not given: the % may be the effect or the level left
Mus musculus [33] = test: Antinociceptive activity in formalin-induced nociception pain Albino Swiss CD-1 mouse model assessed as reduction in time spent licking or biting formalin injected right hind paw in early phase at 25 mg/kg, ip pretreated followed by formalin injection and measured up to 5 mins; format: functional, organism-based
Rattus norvegicus [34] = test: Anti-inflammatory activity in Wistar (Krf:(WI) WU) rat model of carrageenan-induced mechanical hyperalgesia assessed as increase in paw withdrawal threshold at 25 mg/kg, ip administered as single dose prior to carrageenan challenge and measured after 3 hrs; format: functional, organism-based

T1 sequence (Q9H3N8 whole entry): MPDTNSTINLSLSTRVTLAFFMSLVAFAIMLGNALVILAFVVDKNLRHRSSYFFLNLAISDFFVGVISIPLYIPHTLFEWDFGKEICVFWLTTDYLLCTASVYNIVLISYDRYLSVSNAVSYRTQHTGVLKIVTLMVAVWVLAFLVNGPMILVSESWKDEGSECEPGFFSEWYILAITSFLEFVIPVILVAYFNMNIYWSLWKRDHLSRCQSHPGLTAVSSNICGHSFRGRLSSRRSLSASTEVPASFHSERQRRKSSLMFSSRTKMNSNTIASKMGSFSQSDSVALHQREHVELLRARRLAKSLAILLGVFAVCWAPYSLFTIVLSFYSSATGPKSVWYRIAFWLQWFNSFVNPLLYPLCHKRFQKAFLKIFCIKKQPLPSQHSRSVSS
T2 sequence (Q8VH26 whole entry): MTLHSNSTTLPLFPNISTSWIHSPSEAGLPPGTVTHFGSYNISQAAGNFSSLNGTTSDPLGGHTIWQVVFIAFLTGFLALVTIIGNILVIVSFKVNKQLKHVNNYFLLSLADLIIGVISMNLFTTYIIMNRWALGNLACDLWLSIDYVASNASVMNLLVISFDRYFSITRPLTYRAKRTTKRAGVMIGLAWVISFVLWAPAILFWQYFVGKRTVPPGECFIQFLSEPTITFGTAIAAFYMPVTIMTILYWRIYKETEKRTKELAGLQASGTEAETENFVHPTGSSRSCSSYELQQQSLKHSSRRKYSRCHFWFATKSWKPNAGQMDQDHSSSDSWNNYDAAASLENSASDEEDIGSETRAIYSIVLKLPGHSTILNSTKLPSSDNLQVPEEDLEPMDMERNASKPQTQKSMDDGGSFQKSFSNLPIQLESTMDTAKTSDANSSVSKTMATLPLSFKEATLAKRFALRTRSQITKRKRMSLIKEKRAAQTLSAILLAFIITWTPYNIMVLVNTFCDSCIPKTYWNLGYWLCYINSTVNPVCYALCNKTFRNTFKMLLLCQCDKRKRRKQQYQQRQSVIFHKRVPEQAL
Histamine H1 receptor (Cavia porcellus), sequence (P31389 whole entry): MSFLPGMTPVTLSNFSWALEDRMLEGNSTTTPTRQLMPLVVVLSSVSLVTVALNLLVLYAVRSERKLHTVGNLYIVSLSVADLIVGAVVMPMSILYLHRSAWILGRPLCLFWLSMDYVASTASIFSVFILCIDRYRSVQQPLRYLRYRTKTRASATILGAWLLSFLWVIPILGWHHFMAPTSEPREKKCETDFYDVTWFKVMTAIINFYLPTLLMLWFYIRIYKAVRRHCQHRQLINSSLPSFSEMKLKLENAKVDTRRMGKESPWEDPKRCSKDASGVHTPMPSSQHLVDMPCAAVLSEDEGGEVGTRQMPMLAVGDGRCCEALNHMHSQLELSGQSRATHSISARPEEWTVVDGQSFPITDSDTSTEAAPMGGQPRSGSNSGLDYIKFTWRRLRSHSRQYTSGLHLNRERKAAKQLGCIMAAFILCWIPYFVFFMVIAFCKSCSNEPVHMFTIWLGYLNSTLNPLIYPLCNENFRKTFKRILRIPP
Histamine H1 receptor, sequence (P31389 whole entry): as above

`CCC(C)c1nc(N)nc(N2CCN(C)CC2)n1` (stereo not given) showed a Ki (Histamine H4 receptor [1]) of 0.725 µM.

In the case of `CN1CCN(c2nc(N)nc(CC3CCCCC3)n2)CC1`, the Activity [2] is reported as “Not Active”, the Activity (Mus musculus [3]) is reported as 23.84% and the Time (Rattus norvegicus [4]) is reported as “<=10.49 s”. The Activity [5] was “inactive”, the Activity [6] was “Non-Toxic” and the Activity (Rattus norvegicus [7]) was 19.56%. For the same compound, the Activity (Rattus norvegicus [8]) was 41.3%, the Time (Rattus norvegicus [9]) was 9.03 s and the Time (Rattus norvegicus [10]) was 9.43 s. For the same compound, the pKb (Histamine H4 receptor [11]) was 6.67 to 6.7, the Activity (Mus musculus [12]) was “Non-Toxic” and the Activity (Rattus norvegicus [13]) was 83.96%. The Ki (Histamine H4 receptor [1]) was 0.16 µM, the Activity (Mus musculus [14]) was 59.83% and the Activity (Rattus norvegicus [15]) was 25.47%. The Time (Rattus norvegicus [16]) was 10.05 s, the Activity (Rattus norvegicus [17]) was “Dose-dependent effect” and the Activity (Histamine H4 receptor [18]) was “inactive”. It also gave an Activity (Rattus norvegicus [19]) of 21.73%, a Time (Rattus norvegicus [20]) of 7.06 s and an Activity (Rattus norvegicus [21]) of 8.69%. The Activity (Rattus norvegicus [22]) was 84.3%, the ED50 (Mus musculus [23]) was 54.8 mg/kg and the Kb [24] was 2.04 µM. The Activity (Mus musculus [25]) was “Active”, the Time (Rattus norvegicus [26]) was 9.78 s and the Activity (Rattus norvegicus [27]) was “Active”. The Activity (Rattus norvegicus [28]) was 57.37%, the Kb (Histamine H1 receptor) was 1.23 µM and the Activity (Rattus norvegicus [29]) was 53.77%. For the same compound, the IC50 (Histamine H4 receptor [30]) was 0.032 µM and the Activity (Histamine H4 receptor [31]) was “inactive”.

Work on `CC(C)c1nc(N)nc(N2CCN(C)CC2)n1` yielded a Ki (Histamine H4 receptor [1]) of 0.277 µM.

With `CN1CCN(c2nc(N)nc(CCCC3CCCCC3)n2)CC1` the Ki (Histamine H4 receptor [1]) was > 10 µM.

Work on `CC(C)Cc1nc(N)nc(N2CCN(C)CC2)n1` yielded a Ki (Histamine H4 receptor [1]) of 0.529 µM.

Compound `CC(C)=Cc1nc(N)nc(N2CCN(C)CC2)n1` has a Ki (Histamine H4 receptor [1]) of 0.47 µM.

Work on `CCC(CC)c1nc(N)nc(N2CCN(C)CC2)n1` yielded a Ki (Histamine H4 receptor [1]) of 1.33 µM.

Work on `CN1CCN(c2nc(N)nc(CC(C)(C)C)n2)CC1` yielded a Ki (Histamine H4 receptor [1]) of 0.247 µM.

`CN1CCN(C(=O)c2cc3cc(Cl)ccc3[nH]2)CC1` [JNJ-7777120] gave a Time (Rattus norvegicus [4]) of 9.14 s, an Activity (Rattus norvegicus [7]) of 22.11% and an Activity (Rattus norvegicus [8]) of 47.4%. The Activity (Rattus norvegicus [22]) was 63.66%, the Time (Rattus norvegicus [26]) was 8.39 s and the Activity (Mus musculus [32]) was 60.68%. The Activity (Mus musculus [33]) was “inactive” and the Activity (Rattus norvegicus [34]) was “Active”.

For `COCc1nc(N)nc(N2CCN(C)CC2)n1`, the Ki (Histamine H4 receptor [1]) was > 10 µM.

`CCc1nc(N)nc(N2CCN(C)CC2)n1` showed a Ki (Histamine H4 receptor [1]) of 0.812 µM.

With `CCCc1nc(N)nc(N2CCN(C)CC2)n1` the Ki (Histamine H4 receptor [1]) was 0.185 µM, the IC50 (Histamine H4 receptor [30]) was 0.265 µM and the Activity (Histamine H4 receptor [31]) was “inactive”.

`CN1CCN(c2nc(N)nc(C(C)(C)C)n2)CC1` gave a Ki (Histamine H4 receptor [1]) of 1.08 µM.

Compound `Cc1nc(N)nc(N2CCN(C)CC2)n1` has a Ki (Histamine H4 receptor [1]) of 2.66 µM.

`CN1CCN(c2nc(N)nc(CCC3CCCCC3)n2)CC1` showed a Ki (Histamine H4 receptor [1]) of 2.85 µM.
